Experimental data: patent publication US20260022143A1, “Cyclic Peptide Inhibitors of IL-23” (JANSSEN PHARMACEUTICA NV, priority 2022, published 2026)
Starred links: 1 amine or outer side, 2 acyl side, 3 side chain; linkers in the order of their positions; H or OH if unused. Positions of bridges follow the written chain, without caps; N, C: chain ends. Non-standard residues stand in square brackets, D forms with d. Residues, ends and D or L forms follow the SMILES beside them. *: point of attachment. Trp(7-(3-AcNH-Ph)) = CC(=O)Nc1cccc(-c2cccc3c(C[C@H](N)C(=O)O)c[nH]c23)c1; X13 = C[N+]1(Cc2cn(-c3ccc(C[C@H](N[*:1])C(=O)[*:2])cc3)nn2)CCOCC1; X51 = C[N+](C)(C)CCCc1cn(-c2ccc(C[C@H](N[*:1])C(=O)[*:2])cc2)nn1; X27 = C[N+](C)(C)CCc1cn(-c2ccc(C[C@H](N[*:1])C(=O)[*:2])cc2)nn1; Me3N+(CH2)2O(CH2)2O(CH2)2CO = C[N+](C)(C)CCOCCOCCC(=O)*; CH2CH2OCH2CH2OCH2CH2NMe3+ = C[N+](C)(C)CCOCCOCC*; Trp(7-Me) = Cc1cccc2c(C[C@H](N)C(=O)O)c[nH]c12; dLys(Me3) = C[N+](C)(C)CCCC[C@@H](N)C(=O)O; 2Nal = N[C@@H](Cc1ccc2ccccc2c1)C(=O)O; AEF = NCCOc1ccc(C[C@H](N)C(=O)O)cc1; 3Pal = N[C@@H](Cc1cccnc1)C(=O)O; Lys(Me) = CNCCCC[C@H](N)C(=O)O; X53 = C[N+]1(CCOCCOCC*)CCOCC1; Pen = CC(C)(S)[C@H](N)C(=O)O; X8 = C[N+](C)(C)CCCCCCCC*; Thp = NC1(C(=O)O)CCOCC1; X3 = C[N+](C)(C)CCCCC*; Sar = CNCC(=O)O

How the values were obtained:
[1] = Exposed Polar Surface Area (EPSA); assay type: physicochemical; details: SFC on Chirex 3014 column; sample 1 mM DMSO stock; read-out: EPSA
Summary of the method: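 SFC retention on a Chirex 3014 (S-valine/(R)-1-(α-naphthyl)ethylamine) column at 35 °C, 4 mL/min, 14 MPa outlet, 5–60% methanol/20 mM ammonium formate gradient in CO2. Retention times converted to EPSA (Å²) via linear calibration with 8 standards; samples from 1 mM DMSO stock, run in duplicate.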

IL-23R = biological target: T1, IL-23R (Homo sapiens, UniProt Q5VWK5); assay: IL23R Reporter Assay; assay type: cell-based; details: HEK293 cells containing IL-23R, IL-12RP1 and STAT-inducible firefly luciferase reporter; 10 ng/mL IL-23 (EC90); 5 h at 37° C.; read-out: IL23R Reporter Assay
T1 construct: host or cells: HEK293
T1 sequence (Q5VWK5 24-629): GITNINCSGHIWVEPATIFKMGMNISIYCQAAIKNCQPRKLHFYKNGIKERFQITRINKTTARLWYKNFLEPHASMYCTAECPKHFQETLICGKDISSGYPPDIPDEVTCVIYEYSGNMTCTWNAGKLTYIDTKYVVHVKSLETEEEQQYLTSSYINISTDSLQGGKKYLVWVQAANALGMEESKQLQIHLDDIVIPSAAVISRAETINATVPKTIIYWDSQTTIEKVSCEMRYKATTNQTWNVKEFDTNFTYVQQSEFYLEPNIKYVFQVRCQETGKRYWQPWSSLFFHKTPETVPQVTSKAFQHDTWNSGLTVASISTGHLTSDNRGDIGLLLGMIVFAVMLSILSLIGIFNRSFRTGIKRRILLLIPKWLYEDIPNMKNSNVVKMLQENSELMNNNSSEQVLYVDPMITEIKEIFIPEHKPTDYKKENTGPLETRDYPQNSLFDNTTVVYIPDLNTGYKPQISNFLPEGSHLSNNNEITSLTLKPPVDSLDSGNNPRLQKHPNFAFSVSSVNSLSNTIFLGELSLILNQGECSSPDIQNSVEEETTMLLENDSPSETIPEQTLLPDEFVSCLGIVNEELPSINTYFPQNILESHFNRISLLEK

Row | Compound | EPSA [1] [A^2] | IC50 (IL-23R) [nM]
1 | CC(=O)NCCCC[C@@H]1NC(=O)[C@H](Cc2c[nH]c3c(C)cccc23)NC(=O)[C@H]([C@@H](C)O)NC(=O)[C@H](CC(N)=O)NC(=O)[C@@H](NC(C)=O)C(C)(C)SSC(C)(C)[C@@H](C(=O)N[C@@H](Cc2ccc(OCCOCCOCC[N+]3(C)CCOCC3)cc2)C(=O)N[C@@H](Cc2ccc3ccccc3c2)C(=O)NC2(C(=O)N[C@@H](CCCCNC(C)=O)C(=O)N[C@@H](CC(N)=O)C(=O)N[C@@H](Cc3cccnc3)C(=O)N(C)CC(N)=O)CCOCC2)NC1=O [compound 455] (Ac-[Pen]NT[Trp(7-Me)]K(Ac)[Pen]Y(X53)[2Nal][Thp]K(Ac)N[3Pal][Sar]-NH2; disulfide 1-6) | 158 | 2.1
2 | CC(=O)NCCCC[C@@H]1NC(=O)[C@H](Cc2c[nH]c3c(C)cccc23)NC(=O)[C@H]([C@@H](C)O)NC(=O)[C@H](CC(N)=O)NC(=O)[C@@H](NC(C)=O)C(C)(C)SSC(C)(C)[C@@H](C(=O)N[C@@H](Cc2ccc(-n3cc(CCC[N+](C)(C)C)nn3)cc2)C(=O)N[C@@H](Cc2ccc3ccccc3c2)C(=O)NC2(C(=O)N[C@@H](CCC(=O)O)C(=O)N[C@@H](CC(N)=O)C(=O)N[C@@H](Cc3cccnc3)C(=O)N(C)CC(N)=O)CCOCC2)NC1=O [compound 458] (Ac-[Pen]NT[Trp(7-Me)]K(Ac)[Pen][X51][2Nal][Thp]EN[3Pal][Sar]-NH2; disulfide 1-6 (inferred)) | 172 | 2.6
3 | CC(=O)N(C)CCCC[C@H](NC(=O)[C@H](CC(C)C)NC(=O)[C@H](Cc1ccc2ccccc2c1)NC(=O)[C@H](Cc1ccc(OCCOCCOCC[N+](C)(C)C)cc1)NC(=O)[C@H]1NC(=O)[C@H](CC(C)C)NC(=O)[C@H](Cc2c[nH]c3c(C)cccc23)NC(=O)[C@H]([C@@H](C)O)NC(=O)[C@H](CC(C)C)NC(=O)[C@@H](NC(=O)CCOCCOCC[N+](C)(C)C)C(C)(C)SSC1(C)C)C(=O)N[C@@H](CC(N)=O)C(=O)N[C@@H](Cc1cccnc1)C(=O)N(C)CC(=O)N(C)C [compound 463, cPEG3aCO-Pen(3)-L-T-7MeW-L-Pen(3)-APEG3f-2Nal-L-K(NMeAc)-N-3Pya-Sar-CON(Me)2] ({Me3N+(CH2)2O(CH2)2O(CH2)2CO}-[Pen]LT[Trp(7-Me)]L[Pen]Y(CH2CH2OCH2CH2OCH2CH2NMe3+)[2Nal]L[Lys(Me)](Ac)N[3Pal][Sar]-NMe2; disulfide 1-6) | 151 | 9
4 | CC(=O)N(C)CCCC[C@H](NC(=O)[C@H](Cc1ccccc1)NC(=O)[C@H](Cc1ccc2ccccc2c1)NC(=O)[C@H](Cc1ccc(OCCOCCOCC[N+](C)(C)C)cc1)NC(=O)[C@H]1NC(=O)[C@H](Cc2ccccc2)NC(=O)[C@H](Cc2c[nH]c3c(C)cccc23)NC(=O)[C@H]([C@@H](C)O)NC(=O)[C@H](Cc2ccccc2)NC(=O)[C@@H](NC(=O)CCOCCOCC[N+](C)(C)C)C(C)(C)SSC1(C)C)C(=O)N[C@@H](CC(N)=O)C(=O)N[C@@H](Cc1cccnc1)C(=O)N(C)CC(=O)N(C)C [compound 464, cPEG3aCO-Pen(3)-F-T-7MeW-F-Pen(3)-APEG3f-2Nal-F-K(NMeAc)-N-3Pya-Sar-CON(Me)2] ({Me3N+(CH2)2O(CH2)2O(CH2)2CO}-[Pen]FT[Trp(7-Me)]F[Pen]Y(CH2CH2OCH2CH2OCH2CH2NMe3+)[2Nal]F[Lys(Me)](Ac)N[3Pal][Sar]-NMe2; disulfide 1-6) | 160 | 30

Next, values leading:

Row | EPSA [1] [A^2] | IC50 (IL-23R) [nM] | Compound
5 | 172 | 1.5 | CC(=O)NCCCC[C@@H]1NC(=O)[C@H](Cc2c[nH]c3c(-c4cccc(NC(C)=O)c4)cccc23)NC(=O)[C@H]([C@@H](C)O)NC(=O)[C@H](CC(N)=O)NC(=O)[C@@H](NC(C)=O)C(C)(C)SSC(C)(C)[C@@H](C(=O)N[C@@H](Cc2ccc(OCCCCC[N+](C)(C)C)cc2)C(=O)N[C@@H](Cc2ccc3ccccc3c2)C(=O)NC2(C(=O)N[C@@H](CCC(=O)O)C(=O)N[C@@H](CC(N)=O)C(=O)N[C@@H](Cc3cccnc3)C(=O)N(C)CC(N)=O)CCOCC2)NC1=O [compound 451, MeCO-Pen(3)-N-T-7(3NAcPh)W-K(Ac)-Pen(3)-TMAPF-2Nal-THP-E-N-3Pya-Sar-CONH2] (Ac-[Pen]NT[Trp(7-(3-AcNH-Ph))]K(Ac)[Pen]Y(X3)[2Nal][Thp]EN[3Pal][Sar]-NH2; disulfide 1-6)
6 | 176 | 2.1 | CC(=O)NCCCC[C@@H]1NC(=O)[C@H](Cc2c[nH]c3c(C)cccc23)NC(=O)[C@H]([C@@H](C)O)NC(=O)[C@H](CC(N)=O)NC(=O)[C@@H](NC(C)=O)C(C)(C)SSC(C)(C)[C@@H](C(=O)N[C@@H](Cc2ccc(-n3cc(CC[N+](C)(C)C)nn3)cc2)C(=O)N[C@@H](Cc2ccc3ccccc3c2)C(=O)NC2(C(=O)N[C@@H](CCC(=O)O)C(=O)N[C@@H](CC(N)=O)C(=O)N[C@@H](Cc3cccnc3)C(=O)N(C)CC(N)=O)CCOCC2)NC1=O [compound 454] (Ac-[Pen]NT[Trp(7-Me)]K(Ac)[Pen][X27][2Nal][Thp]EN[3Pal][Sar]-NH2; disulfide 1-6 (inferred))
7 | 156 | 1.5 | CC(=O)NCCCC[C@@H]1NC(=O)[C@H](Cc2c[nH]c3c(C)cccc23)NC(=O)[C@H]([C@@H](C)O)NC(=O)[C@H](CC(N)=O)NC(=O)[C@@H](NC(C)=O)C(C)(C)SSC(C)(C)[C@@H](C(=O)N[C@@H](Cc2ccc(OCCCCCCCC[N+](C)(C)C)cc2)C(=O)N[C@@H](Cc2ccc3ccccc3c2)C(=O)NC2(C(=O)N[C@@H](CCCCNC(C)=O)C(=O)N[C@@H](CC(N)=O)C(=O)N[C@@H](Cc3cccnc3)C(=O)N(C)CC(N)=O)CCOCC2)NC1=O [compound 456] (Ac-[Pen]NT[Trp(7-Me)]K(Ac)[Pen]Y(X8)[2Nal][Thp]K(Ac)N[3Pal][Sar]-NH2; disulfide 1-6 (inferred))
8 | 178 | 1.8 | CC(=O)NCCCC[C@@H]1NC(=O)[C@H](Cc2c[nH]c3c(C)cccc23)NC(=O)[C@H]([C@@H](C)O)NC(=O)[C@H](CC(N)=O)NC(=O)[C@@H](NC(C)=O)C(C)(C)SSC(C)(C)[C@@H](C(=O)N[C@@H](Cc2ccc(-n3cc(C[N+]4(C)CCOCC4)nn3)cc2)C(=O)N[C@@H](Cc2ccc3ccccc3c2)C(=O)NC2(C(=O)N[C@@H](CCC(=O)O)C(=O)N[C@@H](CC(N)=O)C(=O)N[C@@H](Cc3cccnc3)C(=O)N(C)CC(N)=O)CCOCC2)NC1=O [compound 459] (Ac-[Pen]NT[Trp(7-Me)]K(Ac)[Pen][X13][2Nal][Thp]EN[3Pal][Sar]-NH2; disulfide 1-6 (inferred))
9 | 192 | 1.4 | CC(=O)NCCCC[C@@H]1NC(=O)[C@H](Cc2c[nH]c3c(-c4cccc(NC(C)=O)c4)cccc23)NC(=O)[C@H]([C@@H](C)O)NC(=O)[C@H](CC(N)=O)NC(=O)[C@@H](NC(=O)[C@@H](CCCC[N+](C)(C)C)NC(C)=O)C(C)(C)SSC(C)(C)[C@@H](C(=O)N[C@@H](Cc2ccc(OCCN)cc2)C(=O)N[C@@H](Cc2ccc3ccccc3c2)C(=O)NC2(C(=O)N[C@@H](CCC(=O)O)C(=O)N[C@@H](CC(N)=O)C(=O)N[C@@H](Cc3cccnc3)C(=O)N(C)CC(N)=O)CCOCC2)NC1=O [compound 461] (Ac-[dLys(Me3)][Pen]NT[Trp(7-(3-AcNH-Ph))]K(Ac)[Pen][AEF][2Nal][Thp]EN[3Pal][Sar]-NH2; disulfide 2-7 (inferred))
10 | 153 | 1.8 | CC(=O)N(C)CCCC[C@@H]1NC(=O)[C@H](Cc2c[nH]c3c(C)cccc23)NC(=O)[C@H]([C@@H](C)O)NC(=O)[C@H](CC(=O)N(C)C)NC(=O)[C@@H](NC(=O)CCOCCOCC[N+](C)(C)C)C(C)(C)SSC(C)(C)[C@@H](C(=O)N[C@@H](Cc2ccc(OCCOCCOCC[N+](C)(C)C)cc2)C(=O)N[C@@H](Cc2ccc3ccccc3c2)C(=O)NC2(C(=O)N[C@@H](C)C(=O)N[C@@H](CC(N)=O)C(=O)N[C@@H](Cc3cccnc3)C(=O)N(C)CC(=O)N(C)C)CCOCC2)NC1=O [compound 466, cPEG3aCO-Pen(3)-N(N(Me)2)-T-7MeW-K(NMeAc)-Pen(3)-APEG3F-2Nal-THP-A-N-3Pya-Sar-CON(Me)2] ({Me3N+(CH2)2O(CH2)2O(CH2)2CO}-[Pen]D(NMe2)T[Trp(7-Me)][Lys(Me)](Ac)[Pen]Y(CH2CH2OCH2CH2OCH2CH2NMe3+)[2Nal][Thp]AN[3Pal][Sar]-NMe2; disulfide 1-6)
11 | 154 | 1.2 | CC(=O)N(C)CCCC[C@@H]1NC(=O)[C@H](Cc2c[nH]c3c(C)cccc23)NC(=O)[C@H]([C@@H](C)O)NC(=O)[C@H](CC(=O)N(C)C)NC(=O)[C@@H](NC(=O)CCOCCOCC[N+](C)(C)C)C(C)(C)SSC(C)(C)[C@@H](C(=O)N[C@@H](Cc2ccc(OCCOCCOCC[N+](C)(C)C)cc2)C(=O)N[C@@H](Cc2ccc3ccccc3c2)C(=O)NC2(C(=O)N[C@@H](CC(C)C)C(=O)N[C@@H](CC(N)=O)C(=O)N[C@@H](Cc3cccnc3)C(=O)N(C)CC(=O)N(C)C)CCOCC2)NC1=O [compound 467, cPEG3aCO-Pen(3)-N(N(Me)2)-T-7MeW-K(NMeAc)-Pen(3)-APEG3F-2Nal-THP-L-N-3Pya-Sar-CON(Me)2] ({Me3N+(CH2)2O(CH2)2O(CH2)2CO}-[Pen]D(NMe2)T[Trp(7-Me)][Lys(Me)](Ac)[Pen]Y(CH2CH2OCH2CH2OCH2CH2NMe3+)[2Nal][Thp]LN[3Pal][Sar]-NMe2; disulfide 1-6)
